{
  "source": "paper PMC3483369",
  "about": "(Molecular cell, 2012)",
  "type_in_all_cases": "biochemical",
  "key": {"GuaB (IMP dehydrogenase)": {"molecular_target": "GuaB (IMP dehydrogenase) (Bacillus subtilis, UniProt P21879)", "sequence (P21879 whole entry)": "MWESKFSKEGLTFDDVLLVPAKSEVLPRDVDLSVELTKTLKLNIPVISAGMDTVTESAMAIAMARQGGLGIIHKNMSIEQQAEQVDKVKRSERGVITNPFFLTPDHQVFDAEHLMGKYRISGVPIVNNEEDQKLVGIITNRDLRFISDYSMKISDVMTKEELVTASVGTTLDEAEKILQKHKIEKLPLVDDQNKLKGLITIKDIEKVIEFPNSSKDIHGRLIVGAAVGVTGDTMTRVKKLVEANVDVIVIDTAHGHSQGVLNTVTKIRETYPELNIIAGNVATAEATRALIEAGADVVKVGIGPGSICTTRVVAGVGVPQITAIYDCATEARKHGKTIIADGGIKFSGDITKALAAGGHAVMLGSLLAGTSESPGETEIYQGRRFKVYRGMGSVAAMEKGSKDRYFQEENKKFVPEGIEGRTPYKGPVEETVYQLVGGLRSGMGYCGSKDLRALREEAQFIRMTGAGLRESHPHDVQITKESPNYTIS", "assay": "kinetic assay with purified GuaB"}, "HprT": {"molecular_target": "HprT (Bacillus subtilis, UniProt P37472)", "sequence (P37472 whole entry)": "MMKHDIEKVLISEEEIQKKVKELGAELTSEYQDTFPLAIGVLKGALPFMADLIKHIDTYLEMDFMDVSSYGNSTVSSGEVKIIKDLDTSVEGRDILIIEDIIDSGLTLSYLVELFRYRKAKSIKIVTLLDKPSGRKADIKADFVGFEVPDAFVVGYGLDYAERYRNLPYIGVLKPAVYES", "assay": "kinetic assay with purified HprT"}, "Gmk (guanylate kinase)": {"molecular_target": "Gmk (guanylate kinase) (Bacillus subtilis, UniProt O34328)", "sequence (O34328 whole entry)": "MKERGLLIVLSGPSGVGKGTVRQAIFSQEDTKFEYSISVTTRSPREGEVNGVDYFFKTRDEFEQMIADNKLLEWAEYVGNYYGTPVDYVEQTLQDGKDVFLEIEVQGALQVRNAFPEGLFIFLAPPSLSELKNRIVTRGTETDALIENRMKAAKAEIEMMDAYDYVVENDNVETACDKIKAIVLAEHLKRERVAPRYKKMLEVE", "assay": "PK/LDH coupled enzymatic assay with purified Gmk"}},
  "data": [
    {"smiles": "Nc1nc2c(ncn2[C@@H]2O[C@H](COP(=O)(O)OP(=O)(O)O)[C@@H](OP(=O)(O)OP(=O)(O)O)[C@H]2O)c(=O)[nH]1", "note": "[ppGpp]", "values": [
      {"measurement": "IC50", "setting": "GuaB (IMP dehydrogenase)", "result": "~500", "unit": "µM"},
      {"measurement": "IC50", "setting": "HprT", "result": "~11", "unit": "µM"},
      {"measurement": "IC50", "setting": "Gmk (guanylate kinase)", "result": "~20", "unit": "µM"}
    ]},
    {"smiles": "Nc1nc2c(ncn2[C@@H]2O[C@H](COP(=O)(O)OP(=O)(O)OP(=O)(O)O)[C@@H](OP(=O)(O)OP(=O)(O)O)[C@H]2O)c(=O)[nH]1", "note": "[pppGpp]", "values": [
      {"measurement": "IC50", "setting": "GuaB (IMP dehydrogenase)", "result": "~300", "unit": "µM"},
      {"measurement": "IC50", "setting": "HprT", "result": "~11", "unit": "µM"},
      {"measurement": "IC50", "setting": "Gmk (guanylate kinase)", "result": "~20", "unit": "µM"}
    ]}
  ]
}
